Test [1] concerns the target T1, human recombinant adrenergic α2A receptor (Homo sapiens, UniProt P08913).
T1 construct: expressed in transfected cells; host or cells: insect Sf9 cells
T1 sequence (P08913 1-465): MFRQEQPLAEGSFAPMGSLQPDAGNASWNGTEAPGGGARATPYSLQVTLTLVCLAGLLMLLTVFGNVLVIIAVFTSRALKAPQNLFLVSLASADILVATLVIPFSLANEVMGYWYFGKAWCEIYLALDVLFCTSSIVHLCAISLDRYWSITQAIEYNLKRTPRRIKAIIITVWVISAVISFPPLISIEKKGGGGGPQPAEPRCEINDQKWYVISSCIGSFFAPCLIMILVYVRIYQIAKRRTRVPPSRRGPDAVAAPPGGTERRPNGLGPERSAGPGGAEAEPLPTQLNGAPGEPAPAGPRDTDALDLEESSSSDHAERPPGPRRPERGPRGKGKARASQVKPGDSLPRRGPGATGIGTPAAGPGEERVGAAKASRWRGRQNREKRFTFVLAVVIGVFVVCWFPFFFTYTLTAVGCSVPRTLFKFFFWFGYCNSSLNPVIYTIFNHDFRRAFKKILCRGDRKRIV
Description: Adrenergic α2A radioligand binding ([3H]MK-912). Particulars: compound at 1 μM. The procedure:
To evaluate in radioligand binding assays the activity of compounds of the invention, human recombinant adrenergic α2A receptor expressed in insect Sf9 cells (Uhlen S et al. J Pharmacol Exp Ther. 271:1558, 1994) in a modified Tris-HCl buffer (50 mM Tris-HCl, pH 7.4, 12.5 mM MgCl2, 2 mM EDTA) was used. Compounds of invention were incubated with 1 nM [^3H]MK-912 for 60 min. at 25° C. MK912 is (2S-trans)-1,3,4,5′,6,6′,7,12b-octahydro-1′,3′-dimethyl-spiro[2H-benzofuro[2,3-a]quinolizine-2,4′(1′H)-pyrimidin]-2′(3′H)-one hydrochloride Non-specific binding was estimated in the presence of 10 μM WB-4101 (2-(2,6-Dimethoxyphenoxyethyl)aminomethyl-1,4-benzodioxane hydrochloride). Receptor proteins were filtered and washed, the filters were then counted to determine [^3H]MK-912 specifically bound. Compounds were screened at 1 μM or lower, using 1% DMSO as vehicle. Biochemical assay results are presented as the percent inhibition of specific binding in Table 9.

The target in test [2] is human dopamine D2L receptor (Homo sapiens, UniProt P14416). In words: Dopamine D2L radioligand binding ([3H]Spiperone). The conditions noted are these: compound at 1 μM; for Inhibition of ligand binding, Dopamine D2L: 1 µM. The text has this:
Non-specific binding was estimated in the presence of […] Haloperidol. Receptor proteins were filtered and washed, the filters were then counted to determine [^3H]Spiperone specifically bound. […] Biochemical assay results are presented as the percent inhibition of specific binding in Table 9.

The target of test [3] is T2, human recombinant serotonin (5-Hydroxytryptamine) 5-HT6 receptor (Homo sapiens, UniProt P50406).
T2 construct: expressed in transfected cells; host or cells: human HeLa cells
In words: Serotonin 5-HT6 radioligand binding ([3H]LSD). Particulars: read-out: Inhibition of ligand binding, Serotonin 5-HT6 (percent inhibition of specific binding); for inhibition at 1 µM: compound at 1 μM; for inhibition at 0.1 µM: compound at 0.1 μM. The procedure:
Compounds of the invention were incubated with 1.5 nM [3H]Lysergic acid diethylamide (LSD) for 120 min. at 37° C. […] Receptor proteins were filtered and washed, the filters were then counted to determine [3H]LSD specifically bound. Compounds were screened at 1 μM or lower, using 1% DMSO as vehicle. Biochemical assay results are presented as the percent inhibition of specific binding in Table 10.

The target of another test is histamine receptor H1 (Homo sapiens, UniProt P35367). Description: Histamine H1 radioligand binding ([3H]Pyrilamine). The conditions noted are these: for inhibition at 1 µM: read-out: Histamine Binding (1 μM) H1, percent inhibition of specific binding, 1 μM. Summed up: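 Values are percent inhibition of specific [3H]pyrilamine (1.2 nM) binding with compounds at ≤1 μM (1% DMSO vehicle); 180 min incubation at 25 °C, pH 7.4 Tris buffer, on CHO-expressed human H1 receptor; 1 μM pyrilamine defined nonspecific binding, bound ligand counted after filtration.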

Test [4] has as its target T3, human recombinant adrenergic α2B receptor (Homo sapiens, UniProt P18089).
T3 construct: expressed in transfected cells; host or cells: Chinese hamster ovary (CHO-K1) cells
T3 sequence (P18089 1-450): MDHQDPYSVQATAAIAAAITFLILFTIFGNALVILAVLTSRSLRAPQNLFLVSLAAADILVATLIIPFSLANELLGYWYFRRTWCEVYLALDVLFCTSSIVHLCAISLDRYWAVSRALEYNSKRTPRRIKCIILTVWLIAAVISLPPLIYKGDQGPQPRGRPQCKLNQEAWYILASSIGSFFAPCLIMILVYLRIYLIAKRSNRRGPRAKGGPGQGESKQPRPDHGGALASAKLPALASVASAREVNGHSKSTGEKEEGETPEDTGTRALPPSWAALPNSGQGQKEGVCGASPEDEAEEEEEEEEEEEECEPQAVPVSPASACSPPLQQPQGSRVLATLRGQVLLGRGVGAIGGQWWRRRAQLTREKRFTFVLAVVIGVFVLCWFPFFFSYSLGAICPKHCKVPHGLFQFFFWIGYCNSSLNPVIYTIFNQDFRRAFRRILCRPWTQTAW
Description: Adrenergic α2B radioligand binding ([3H]Rauwolscine). The conditions noted are these: compound at 1 μM. How it is done:
To evaluate in radioligand binding assays the activity of compounds of the invention, human recombinant adrenergic α2B receptor expressed in Chinese hamster ovary (CHO-K1) cells (Uhlen S et al. Eur J Pharmacol. 343(1):93, 1998) in a modified Tris-HCl buffer (50 mM Tris-HCl, pH 7.4, 12.5 mM MgCl2, 1 mM EDTA, 0.2% BSA) was used. Compounds of the invention were incubated with 2.5 nM [^3H]Rauwolscine for 60 min. at 25° C. Non-specific binding was estimated in the presence of 10 μM Prozosin. Receptor proteins were filtered and washed, the filters were then counted to determine [^3H]Rauwolscine specifically bound. Compounds were screened at 1 μM or lower, using 1% DMSO as vehicle. Biochemical assay results are presented as the percent inhibition of specific binding in Table 9.

The mark [5] stands for this setting: read-out: Inhibition of ligand binding, Adrenergic α2A (percent inhibition of specific binding).
The mark [6] stands for this setting: […] [3H]Spiperone, read-out: Inhibition of ligand binding, Dopamine D2L (percent inhibition of specific binding).
[7] abbreviates: […] [3H]Rauwolscine, read-out: Inhibition of ligand binding, Adrenergic α2B (percent inhibition of specific binding).
Where [8] appears, read: percent inhibition of specific binding, read-out: Inhibition of ligand binding, Adrenergic α2A.
Where [9] appears, read: percent inhibition of specific binding, read-out: Inhibition of ligand binding, Dopamine D2L.
Setting [10] is: percent inhibition of specific binding, read-out: Inhibition of ligand binding, Adrenergic α2B.
Setting [11] is: percent inhibition of specific binding.

Structures are written as SMILES. Like-named read-outs stand apart in the source and are kept apart here.

A word on the inhibition: it is the change of the read-out against control, counted positive when it falls.

T2 sequence (P50406 whole entry): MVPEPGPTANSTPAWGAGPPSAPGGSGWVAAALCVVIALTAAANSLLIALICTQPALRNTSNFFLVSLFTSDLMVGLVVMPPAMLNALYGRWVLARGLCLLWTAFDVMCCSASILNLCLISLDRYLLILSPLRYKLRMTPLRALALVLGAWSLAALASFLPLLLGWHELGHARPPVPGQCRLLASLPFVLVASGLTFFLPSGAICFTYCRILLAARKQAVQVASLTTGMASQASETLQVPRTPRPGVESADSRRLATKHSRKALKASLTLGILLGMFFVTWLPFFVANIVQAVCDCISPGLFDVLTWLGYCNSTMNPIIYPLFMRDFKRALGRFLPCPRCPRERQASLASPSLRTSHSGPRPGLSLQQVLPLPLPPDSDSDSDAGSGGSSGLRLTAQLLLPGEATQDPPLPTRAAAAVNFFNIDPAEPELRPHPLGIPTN
Chain of histamine receptor H1 (P35367 whole entry): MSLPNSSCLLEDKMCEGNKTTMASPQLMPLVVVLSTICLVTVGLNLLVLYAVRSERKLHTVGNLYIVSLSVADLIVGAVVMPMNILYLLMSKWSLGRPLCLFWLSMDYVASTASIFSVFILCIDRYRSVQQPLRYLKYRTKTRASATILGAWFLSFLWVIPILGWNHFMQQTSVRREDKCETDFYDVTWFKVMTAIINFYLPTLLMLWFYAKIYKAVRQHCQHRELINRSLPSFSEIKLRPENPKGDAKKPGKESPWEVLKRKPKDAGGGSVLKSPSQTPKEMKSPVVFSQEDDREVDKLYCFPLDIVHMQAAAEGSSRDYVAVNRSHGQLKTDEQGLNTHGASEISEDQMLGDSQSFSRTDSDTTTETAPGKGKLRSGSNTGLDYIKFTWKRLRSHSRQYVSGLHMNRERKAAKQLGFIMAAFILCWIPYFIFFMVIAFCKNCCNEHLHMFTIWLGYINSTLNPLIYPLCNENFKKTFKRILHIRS
Chain of human dopamine D2L receptor (P14416 whole entry): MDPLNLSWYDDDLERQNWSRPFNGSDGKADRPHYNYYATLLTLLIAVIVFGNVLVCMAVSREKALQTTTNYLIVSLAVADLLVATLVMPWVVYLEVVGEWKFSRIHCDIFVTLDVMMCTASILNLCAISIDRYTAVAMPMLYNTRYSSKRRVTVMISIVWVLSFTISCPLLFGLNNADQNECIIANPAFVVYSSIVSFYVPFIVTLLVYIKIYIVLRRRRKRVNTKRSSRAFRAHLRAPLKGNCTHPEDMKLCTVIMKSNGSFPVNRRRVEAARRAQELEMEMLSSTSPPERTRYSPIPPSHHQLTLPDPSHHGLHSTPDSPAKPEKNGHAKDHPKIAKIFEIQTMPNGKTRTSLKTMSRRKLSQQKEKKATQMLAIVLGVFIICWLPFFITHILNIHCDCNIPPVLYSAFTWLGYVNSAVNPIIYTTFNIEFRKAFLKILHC

For the molecule `Cc1ccc2c(c1)c1c(n2C#Cc2ccc(F)cc2)CCN(C)C1` [Compound No. 478, 5-((4-fluorophenyl)ethynyl)-2,8-dimethyl-2,3,4,5-tetrahydro-1H-pyrido[4,3-b]indole], the inhibition at 1 µM came out at 96% in test [1] (setting [5]); 89% in test [2] (setting [6]); 97% in test [3]; 28% on histamine receptor H1; 106% in test [4] (setting [7]).

Take `Cc1ccc(/C=C/Cn2c3c(c4cc(Cl)ccc42)CN(C)CC3)cn1` [Compound 125, 8-chloro-2,3,4,5-tetrahydro-2-methyl-5-((E)-3-(6-methylpyridin-3-yl)allyl)-1H-pyrido[4,3-b]indole]: the inhibition at 1 µM in test [1] (setting [8]) was found to be 76%; in test [2] (setting [9]), 20%; in test [3] it was 62%; at histamine receptor H1, 96%; in test [4] (setting [10]) it was 110%.

Take `C/C(=C\n1c2c(c3cc(Cl)ccc31)CN(C)CC2)c1ccncc1` [Compound 90, (E)-8-chloro-2,3,4,5-tetrahydro-2-methyl-5-(2-(pyridin-4-yl)prop-1-enyl)-1H-pyrido[4,3-b]indole]: the inhibition at 1 µM in test [1] (setting [8]) worked out at 95%; in test [2] (setting [9]), 93%; in test [3] it was 103%; on histamine receptor H1, 48%; in test [4] (setting [10]), 104%. Further, in test [2] (setting [11]), the “Inhibition of ligand binding, Dopamine D2L” value was found to be 98%. Besides, the inhibition at 0.1 µM in test [3] turned out to be 102%. Moreover, the “Histamine Binding (1 μM) H1, percent inhibition of specific binding” value on histamine receptor H1 was determined as 59%.

`C/C(=C\n1c2c(c3cc(Cl)ccc31)CN(C)CC2)c1ccc(C)nc1` [Compound 89, (E)-8-chloro-2,3,4,5-tetrahydro-2-methyl-5-(2-(6-methylpyridin-3-yl)prop-1-enyl)-1H-pyrido[4,3-b]indole]: the inhibition at 1 µM in test [1] (setting [8]) was 97%; in test [2] (setting [9]), 68%; in test [3] it was 67%; on histamine receptor H1, 43%; in test [4] (setting [10]), 108%.

For `C/C(=C\n1c2c(c3cc(Cl)ccc31)CN(C)CC2)c1ccccc1F` [Compound 213, (E)-8-chloro-5-(2-(2-fluorophenyl)prop-1-enyl)-2-methyl-2,3,4,5-tetrahydro-1H-pyrido[4,3-b]indole], the inhibition at 1 µM in test [1] (setting [8]) stood at 88%; in test [2] (setting [9]) it was 76%; in test [3], 100%; at histamine receptor H1 it was 69%; in test [4] (setting [10]), 103%.

Consider `C=C(Cn1c2c(c3cc(Cl)ccc31)CN(C)CC2)c1ccc(C)nc1` [Compound 136, 8-chloro-2,3,4,5-tetrahydro-2-methyl-5-(2-(6-methylpyridin-3-yl)allyl)-1H-pyrido[4,3-b]indole], for which the inhibition at 1 µM turned out to be 95% in test [1] (setting [8]); 54% in test [2] (setting [9]); 73% in test [3]; 99% on histamine receptor H1; 90% in test [4] (setting [10]).

Take `CN1CCc2c(c3cc(Cl)ccc3n2/C=C(/c2ccc(F)cc2)C2CCC2)C1` [Compound 206, (E)-8-chloro-5-(2-cyclobutyl-2-(4-fluorophenyl)vinyl)-2-methyl-2,3,4,5-tetrahydro-1H-pyrido[4,3-b]indole]: the inhibition at 1 µM in test [1] (setting [8]) was 96%; in test [2] (setting [9]), 76%; in test [3], 102%; on histamine receptor H1, 76%; in test [4] (setting [10]), 89%.

Regarding `COc1ccc(C#Cn2c3c(c4cc(Cl)ccc42)CN(C)CC3)cc1F` [Compound No. 477, 8-chloro-5-((3-fluoro-4-methoxyphenyl)ethynyl)-2-methyl-2,3,4,5-tetrahydro-1H-pyrido[4,3-b]indole], the inhibition at 1 µM came out at 97% in test [1] (setting [5]); 25% in test [2] (setting [6]); 89% in test [3]; 17% on histamine receptor H1; 107% in test [4] (setting [7]).

As for `CNC(=O)c1ccc2c(c1)c1c(n2C#Cc2ccc(F)cc2)CCN(C)C1` [Compound No. 483, 5-((4-fluorophenyl)ethynyl)-N,2-dimethyl-2,3,4,5-tetrahydro-1H-pyrido[4,3-b]indole-8-carboxamide], the inhibition at 1 µM is 77% in test [1] (setting [5]); 37% in test [2] (setting [6]); 53% in test [3]; -1% at histamine receptor H1; 14% in test [4] (setting [7]).

`Cc1ccc2c(c1)c1c(n2CC(C)(O)c2cccnc2)CCN(C)C1` (stereo not drawn) [Compound 60, 1-(1,2,3,4-tetrahydro-2,8-dimethylpyrido[4,3-b]indol-5-yl)-2-(pyridin-3-yl)propan-2-ol]: the inhibition at 1 µM worked out at 81% in test [1] (setting [8]); 6% in test [2] (setting [9]); 50% in test [3]; 52% on histamine receptor H1; 96% in test [4] (setting [10]).

As for `C/C(=C\n1c2c(c3ccccc31)CN(C)CC2)c1ccc(F)cc1` [Compound 205, (E)-5-(2-(4-fluorophenyl)prop-1-enyl)-2-methyl-2,3,4,5-tetrahydro-1H-pyrido[4,3-b]indole], the inhibition at 1 µM was found to be 99% in test [1] (setting [8]); 98% in test [2] (setting [9]); 103% in test [3]; 31% at histamine receptor H1; 101% in test [4] (setting [10]). Moreover, the “Inhibition of ligand binding, Dopamine D2L” value in test [2] (setting [11]) was determined as 99%. Further, the inhibition at 0.1 µM in test [3] was determined as 99%. On histamine receptor H1, the “Histamine Binding (1 μM) H1, percent inhibition of specific binding” value is recorded as 39%.

In the case of `Cc1ccc2c(c1)c1c(n2CC(O)c2cccnc2)CCN(C)C1` (stereo not drawn) [Compound 54, 2-(1,2,3,4-tetrahydro-2,8-dimethylpyrido[4,3-b]indol-5-yl)-1-(pyridin-3-yl)ethanol], the inhibition at 1 µM is 39% in test [1] (setting [8]); -4% in test [2] (setting [9]); 31% in test [3]; 68% at histamine receptor H1; 103% in test [4] (setting [10]).

These data come from US8906925B2, “Pyrido[4,3-B]indoles containing rigid moieties” (Medivation Technologies, Inc., priority 2008, dated 2014).
